Laboratory results from patent US12201629B2 (priority 2017, dated 2025).

Test: Example 2: pharmacokinetics of oral and intravenous buprenorphine hydrochloride under naltrexone blockade
Settings: injection, equimolar to 0.3 mg buprenorphine base, over 15 min; n = 8

Structure (SMILES): CO[C@@]12CC[C@@]3(C[C@@H]1[C@](C)(O)C(C)(C)C)[C@H]1Cc4ccc(O)c5c4[C@@]3(CCN1CC1CC1)[C@H]2O5.Cl [Buprenorphine i.v., Buprenorphine HCl]
- Buprenorphine Mean Cmax: 4.26 ng/mL
- Buprenorphine Mean Tmax: 20.2 min
